Where “and” joins values, the source holds several entries; their conditions need not be identical. Equal values may be shown once.
Assays:
5-alpha-reductase enzyme = conditions: constituents of Ageratum spp. extracts; no test described; cited from earlier work
bovine corneas = experiment: Bovine Corneal Opacity and Permeability assay (ocular irritation)
Excerpt: SUMMARY: This test was designed to assess the ocular irritation potential of a non-surfactant, liquid article such as Ageratum conyzoides extract. The test is a modification of that described by Gautheron, et. al. (“Bovine Corneal Opacity and Permeability Test: An In Vitro Assay of Ocular Irritancy” Fund. Appl. Toxicol. 18:442-449 (1992)), and Vanparys, et al. (“Evaluation of the bovine opacity-permeability assay as an in vitro alternative to the Draize eye irritation test” Toxicol. In Vitro 7:471-76 (1994)).
Bovine eyes were obtained by this facility from a local abattoir. The eyes were transported in an appropriate container containing Hank's balanced salt solution (HBSS, Sigma Chemical Co., H-1387). Transportation and storage of the eyes was at approximately 21° C. (70° F.). The eyes were used the day of their harvest and transport.
Upon test initiation, the iris and the lens were removed and the corneas were placed in the bovine cornea holders. The endothelial surface was applied to the O-ring of the posterior part of the holder. The anterior part of the holder was placed against the epithelial side of the cornea. The two sides of the holder were screwed together. The bovine holders' components were then filled with pre-warmed Eagle's Minimum Essential Media (EM EM, Sigma Chemical Co., M-3024) with 1% Fetal Bovine Serum (FBS, American Type Culture Collection) at approximately 32° C.±2° C. (90° F.±4° F.). The posterior chamber was filled first. The corneas were incubated for approximately one hour, in a 32° C.±2° C. (90° F.±4° F.) water bath. This allowed for the pre-equilibration of the corneas to the external medium.
After the pre-equilibration period, media from both of the chamber of the cassettes was aspirated, with the anterior chamber being aspirated first. Each chamber was then refilled with fresh EMEM, with the posterior chamber being filled first. Initial opacity readings were taken and recorded. Corneas with initial readings greater than […] were not used. Three corneas were assigned to each test and control article. The corneas with the lowest readings were used as the negative controls.
The test article and the positive control article (ethanol) and the negative control article (physiological saline) were each tested at 100%.
A volume of 0.75 milliliters of the appropriate article, pre-warmed to 32° C.±2° C. (90° F.±4° F.), was introduced into the anterior chamber of the appropriate cassettes. The anterior chambers were then plugged and turned to a horizontal position. They were then rotated slightly, so that the article uniformly covered each cornea. The cassettes were incubated for 10 minutes at 32° C.±2° C. (90° F.±4° F.), in a water bath.
The anterior chambers of each cassette were then refilled with fresh EMEM via syringe. After refilling, the chambers were again plugged. All corneas were then incubated for 2 hours at approximately 32° C.±2° C. (90° F.±4° F.), in a water bath.
After this 2 hour incubation period, all compartments were emptied and refilled with fresh EMEM. Each holder was individually placed in the “positive” compartment, while the “negative” compartment was left empty. The glass portion of each holder was dried prior to the reading. The opacity of each cornea was taken and recorded. The corneas were also observed grossly. Any unusual findings, such as opaque spots, were recorded.
After the opacity readings were completed, the medium was removed from the anterior chambers. Either a suitable pipette tip or a flat ended needle was used for this procedure. One milliliter of 6 mg/ml fluorescein (Sodium Fluorescein, Sigma-Aldrich, F-637 in Dulbecco's Phosphate Buffered Saline (DPBS Sigma-Aldrich) pH approximately 7.5) solution was added to each of the anterior chambers. A micro pipette was used for this procedure.
After the fluorescein solution was added to each anterior compartment, the compartments were plugged. The cassettes were then incubated, in a horizontal position, for 90 minutes at 32° C.±2° C.

[1] = individual cornea, negative control average subtracted
[2] = mean of three corneas, article at 100%

SMILES: CCCCC/C=C\C/C=C\CCCCCCCC(=O)O [9,12-octadecadienoic acid (Z,Z)-]
- identified as 5-alpha-reductase inhibitor (5-alpha-reductase enzyme): 5-alpha-reductase inhibitors

SMILES: CCO [+Control, Ethanol]
- Difference (terminal minus initial opacity) (bovine corneas; individual cornea, article at 100%): 51 and 45 and 54
- Terminal Opacity (bovine corneas; individual cornea, article at 100%, 10 minute exposure, 2 hour incubation): 56 and 46 and 55
- Initial Opacity (bovine corneas; individual cornea, baseline reading before exposure): 2 and 1 (2×)
- Optical Density490 (bovine corneas; individual cornea, fluorescein permeability, 90 minutes): 1.239 and 0.662 and 1.663
- Corrected Corneal Opacity (bovine corneas; [1]): 48.3 and 42.3 and 51.3
- Corrected OD490 (bovine corneas; [1]): 1.233 and 0.656 and 1.657
- In Vitro Score (bovine corneas; individual cornea, Corrected Corneal Opacity + 15 x Corrected OD490): 65.8 and 52.5 and 76.2
- Mean Corrected OD490 (bovine corneas; mean of three corneas): 1.182
- Average In Vitro Score (bovine corneas; [2]): 65.0
- Mean Corrected Corneal Opacity (bovine corneas; [2]): 47.3

SMILES: CC/C=C\C/C=C\C/C=C\CCCCCCCC(=O)O [Alpha-linolenic acid]
- identified as 5-alpha-reductase inhibitor (5-alpha-reductase enzyme): 5-alpha-reductase inhibitors

SMILES: CCCCCCCCCCCCCCCC(=O)O [Hexadecanoic acid]
- identified as 5-alpha-reductase inhibitor (5-alpha-reductase enzyme): 5-alpha-reductase inhibitors

SMILES: O=C1CCc2ccccc2O1 [Hydrocoumarin]
- identified as 5-alpha-reductase inhibitor (5-alpha-reductase enzyme): 5-alpha-reductase inhibitors
